Consider 9 compounds from ChEMBL document CHEMBL1127583, “Discovery of a potent, peripherally selective trans-3,4-dimethyl-4-(3-hydroxyphenyl)piperidine opioid antagonist for the treatment of gastrointestinal motility disorders” (J Med Chem, 1994).

The subject of assay [1] is Mus musculus. The assay is described as follows: Tested for reduction in the analgesic response to morphine after subcutaneous administration of 1.25 mg/kg in abdominal stretching assay. Format: functional, Abdomen.
Assay [2] has as its system Mus musculus. Briefly: Tested for effective dose required to produce diarrhea in morphine dependent mice after subcutaneous administration. Format: functional.
For assay [3], the target named is Kappa-type opioid receptor (Cavia porcellus) (UniProt P41144). The assay is described as follows: Tested for binding affinity towards kappa receptor in presence of [3H]EKC radioligand at 100 nM.
Assay [4] has as its target Mu-type opioid receptor (Rattus norvegicus) (UniProt P33535). Briefly: Tested for binding affinity towards mu receptor in presence of [3H]NAL radioligand at 10 nM.
The test system of assay [5] is Mus musculus. The assay is described as follows: Tested for effective dose required to produce diarrhea in morphine dependent mice after peroral administration. Format: functional.
Assay [6] concerns the target Mu-type opioid receptor (Rattus norvegicus) (UniProt P33535). The assay is described as follows: Tested for binding affinity towards mu receptor in presence of [3H]NAL radioligand at 100 nM.
Assay [7] deals with Kappa-type opioid receptor (Cavia porcellus) (UniProt P41144). The assay is described as follows: Tested for binding affinity towards kappa receptor in presence of [3H]EKC radioligand at 10 nM.
For assay [8], the target named is Mu-type opioid receptor (Rattus norvegicus, UniProt P33535). The assay is described as follows: Tested for binding affinity towards mu receptor in presence of [3H]NAL radioligand.
For assay [9], the target named is T1, Kappa-type opioid receptor (Cavia porcellus, UniProt P41144). Briefly: Tested for binding affinity towards kappa receptor in presence of [3H]EKC radioligand.
The target in assay [10] is Delta-type opioid receptor (Rattus norvegicus, UniProt P33533). The assay is described as follows: Tested for binding affinity towards delta receptor in rat brain homogenates using [3H]D-Ala2-[…]-enkephalin as radioligand. Format: tissue-based.
The target in assay [11] is Delta-type opioid receptor (Mus musculus, UniProt P32300). Briefly: Tested for its antagonist activity against (DPDE)delta receptor in mouse vas deferens. Format: functional, tissue-based. Particulars: read-out: pA2 (converted).
The target of assay [12] is T1, Kappa-type opioid receptor. Briefly: Tested for its antagonist activity against kappa receptor using U-69,593 […] in isolated guinea pig ileum. Format: functional, tissue-based. Particulars: read-out: pA2 (converted).
Assay [13] addresses Mu-type opioid receptor (Cavia porcellus, UniProt P97266). Briefly: Tested for its antagonist activity against mu receptor using DAMGO […] in isolated guinea pig ileum. Format: functional, tissue-based. Particulars: read-out: pA2 (converted).
The mark [14] stands for this setting: Mus musculus, sc, read-out: ED50.
The mark [15] stands for this setting: Mus musculus, po, read-out: ED50.

Sequence of Mu-type opioid receptor (Rattus norvegicus, UniProt P33535) (P33535 whole entry): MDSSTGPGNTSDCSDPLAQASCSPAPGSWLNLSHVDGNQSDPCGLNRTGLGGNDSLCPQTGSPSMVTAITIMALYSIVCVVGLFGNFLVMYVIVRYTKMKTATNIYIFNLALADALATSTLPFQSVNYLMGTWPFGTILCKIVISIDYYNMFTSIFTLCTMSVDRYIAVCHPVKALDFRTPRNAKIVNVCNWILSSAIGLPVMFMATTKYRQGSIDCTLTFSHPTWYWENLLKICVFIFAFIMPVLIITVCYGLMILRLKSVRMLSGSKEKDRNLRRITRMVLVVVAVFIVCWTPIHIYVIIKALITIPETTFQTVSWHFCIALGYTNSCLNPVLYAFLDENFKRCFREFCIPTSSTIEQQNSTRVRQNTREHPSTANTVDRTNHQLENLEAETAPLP
Sequence of Mu-type opioid receptor (Rattus norvegicus) (P33535 whole entry): as above
Sequence of Kappa-type opioid receptor (Cavia porcellus) (P41144 whole entry): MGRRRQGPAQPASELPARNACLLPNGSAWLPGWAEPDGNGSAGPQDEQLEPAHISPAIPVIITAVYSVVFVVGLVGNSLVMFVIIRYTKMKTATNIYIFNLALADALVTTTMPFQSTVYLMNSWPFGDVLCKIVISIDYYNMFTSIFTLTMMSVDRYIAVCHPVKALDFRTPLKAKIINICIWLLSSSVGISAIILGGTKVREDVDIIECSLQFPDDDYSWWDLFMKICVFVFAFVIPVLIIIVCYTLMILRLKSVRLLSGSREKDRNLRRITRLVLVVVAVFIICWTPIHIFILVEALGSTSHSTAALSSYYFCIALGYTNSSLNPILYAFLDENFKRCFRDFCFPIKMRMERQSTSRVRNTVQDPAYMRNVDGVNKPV
T1 sequence (P41144 whole entry): as above
Sequence of Delta-type opioid receptor (Mus musculus, UniProt P32300) (P32300 whole entry): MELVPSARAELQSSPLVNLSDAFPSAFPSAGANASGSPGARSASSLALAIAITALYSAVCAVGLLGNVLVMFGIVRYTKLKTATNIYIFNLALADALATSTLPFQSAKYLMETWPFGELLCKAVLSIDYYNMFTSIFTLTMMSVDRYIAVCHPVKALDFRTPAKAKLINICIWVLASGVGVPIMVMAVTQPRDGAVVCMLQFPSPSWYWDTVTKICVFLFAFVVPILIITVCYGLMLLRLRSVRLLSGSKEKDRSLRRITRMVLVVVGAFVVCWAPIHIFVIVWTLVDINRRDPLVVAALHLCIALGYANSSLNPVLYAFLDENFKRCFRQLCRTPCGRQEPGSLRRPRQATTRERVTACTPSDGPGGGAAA
Sequence of Mu-type opioid receptor (Cavia porcellus, UniProt P97266) (P97266 whole entry): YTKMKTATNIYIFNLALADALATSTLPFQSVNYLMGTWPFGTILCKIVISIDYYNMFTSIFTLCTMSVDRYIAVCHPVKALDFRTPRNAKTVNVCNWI
Sequence of Delta-type opioid receptor (Rattus norvegicus, UniProt P33533) (P33533 whole entry): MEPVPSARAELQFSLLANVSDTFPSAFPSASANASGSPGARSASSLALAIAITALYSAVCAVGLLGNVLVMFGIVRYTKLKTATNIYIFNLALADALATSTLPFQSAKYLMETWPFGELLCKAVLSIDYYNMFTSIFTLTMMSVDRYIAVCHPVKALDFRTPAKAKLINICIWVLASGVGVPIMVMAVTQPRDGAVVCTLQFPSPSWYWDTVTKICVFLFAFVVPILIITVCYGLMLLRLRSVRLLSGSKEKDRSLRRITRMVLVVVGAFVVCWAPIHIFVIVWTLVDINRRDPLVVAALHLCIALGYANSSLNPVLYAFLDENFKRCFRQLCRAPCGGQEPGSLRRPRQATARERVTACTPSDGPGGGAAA

In assay [1], `C=CCN1CC[C@]23c4c5ccc(O)c4O[C@H]2C(=O)CC[C@@]3(O)[C@H]1C5` [NALOXONE] showed an AD50 of 0.08 mg/kg. For the same compound, in [2] (setting [14]), the 50% effective dose (ED50) came out at 0.05 mg/kg.
On to `CC(C)COC(=O)CNC(=O)[C@H](Cc1ccccc1)CN1CC[C@@](C)(c2cccc(O)c2)[C@@H](C)C1`, for which the Specific Displacement in assay [3] stood at 0%; in assay [4], 11%; in assay [6], 70%; in [7], 0%. Moreover, the ED50 was over 10 mg/kg in assay [5] (setting [15]) and 0.5 mg/kg in assay [2] (setting [14]). For the same compound, the AD50 in assay [1] is 29.6 mg/kg.
As for `CC(C)COC(=O)CNC(=O)C(Cc1ccccc1)CN1CCC(C)(c2cccc(O)c2)C(C)C1` (racemic), the Specific Displacement in assay [3] came out at 16%; in [7], 7%. In addition, the ED50 in assay [5] (setting [15]) was 1.1 mg/kg; in assay [2] (setting [14]), 0.15 mg/kg. This compound also displayed an AD50 in [1] of over 40 mg/kg. Besides, the Ki in [8] is 4 nM.
On to `CC(C)COC(=O)CNC(=O)[C@@H](Cc1ccccc1)CN1CC[C@@](C)(c2cccc(O)c2)[C@@H](C)C1`, for which the ED50 in [5] came out at 1.3 mg/kg; in assay [2] it was 0.044 mg/kg. This compound also registered an AD50 in assay [1] (1.25 mg/kg) of 11.6 mg/kg. Besides, the values for the Ki in assay [8] and in assay [9] were 5.5 nM and 23 nM, respectively.
Consider `C[C@H]1CN(CC(Cc2ccccc2)C(=O)NCC(=O)O)CC[C@@]1(C)c1cccc(O)c1` (stereo not given in full), for which the Specific Displacement was determined as 53% in assay [3] and 23% in assay [7]. Also, the values for the ED50 in assay [5] (setting [15]) and in assay [2] (setting [14]) were 2 mg/kg and 0.028 mg/kg, respectively. For the same compound, the AD50 in [1] was over 40 mg/kg.
As to `CC1CN(C[C@H](Cc2ccccc2)C(=O)NCC(=O)O)CCC1(C)c1cccc(O)c1` (stereo not given in full), the Ki in assay [10] turned out to be 4.4 nM; in [8] it was 0.77 nM; in assay [9] it was 40 nM. Moreover, the Kb in [11] is 2 nM; in assay [12], 15.8 nM; in assay [13] it was 0.2 nM. Moreover, the ED50 is 0.84 mg/kg in assay [5] (setting [15]) and 0.04 mg/kg in assay [2] (setting [14]). The compound further had an AD50 in assay [1] of 9 mg/kg.
Consider `C[C@H]1CN(CC(Cc2ccccc2)C(=O)O)CC[C@@]1(C)c1cccc(O)c1` (stereo not given in full), for which the results for the Specific Displacement in assay [3] and in assay [7] were 15% and 0%, respectively. Also, in assay [2] (setting [14]), the ED50 turned out to be 0.028 mg/kg.
As for `CC(C)COC(=O)CNC(=O)[C@@H](Cc1ccccc1)CN1CCC(C)(c2cccc(O)c2)C(C)C1` (single isomer, unassigned), the Specific Displacement stood at 55% in assay [3] and 4% in assay [7]. The ED50 in assay [5] (setting [15]) is 1.7 mg/kg; in assay [2], 0.02 mg/kg. This compound also gave an AD50 in assay [1] (1.25 mg/kg) of 16.8 mg/kg. In addition, the Ki in [8] is 19.2 nM.
Regarding `CC(C)COC(=O)CNC(=O)[C@H](Cc1ccccc1)CN1CC[C@](C)(c2cccc(O)c2)[C@H](C)C1`, the Specific Displacement in assay [3] came to 34%; in assay [4], 57%; in [6], 92%; in assay [7], 0%. Further, the 50% effective dose (ED50) was over 10 mg/kg in [5] (setting [15]) and 0.37 mg/kg in assay [2] (setting [14]). The compound further registered an AD50 in [1] of over 40 mg/kg.

As usually defined, the ED50 is the midpoint of the dose-response relation. By Ki is commonly meant the equilibrium dissociation constant of an inhibitor or competing ligand from its target.
